A word on the IC50: it is the concentration that inhibits the measured activity by half.

Experimental findings from patent US12486274B2, “Substituted pyrazolo-pyrimidines and uses thereof” (Verge Analytics, Inc., priority 2020, dated 2025) are described below.

Sequence of Full length human recombinant PIKFYVE (Q9Y2I7 whole entry, the tested form may be a part): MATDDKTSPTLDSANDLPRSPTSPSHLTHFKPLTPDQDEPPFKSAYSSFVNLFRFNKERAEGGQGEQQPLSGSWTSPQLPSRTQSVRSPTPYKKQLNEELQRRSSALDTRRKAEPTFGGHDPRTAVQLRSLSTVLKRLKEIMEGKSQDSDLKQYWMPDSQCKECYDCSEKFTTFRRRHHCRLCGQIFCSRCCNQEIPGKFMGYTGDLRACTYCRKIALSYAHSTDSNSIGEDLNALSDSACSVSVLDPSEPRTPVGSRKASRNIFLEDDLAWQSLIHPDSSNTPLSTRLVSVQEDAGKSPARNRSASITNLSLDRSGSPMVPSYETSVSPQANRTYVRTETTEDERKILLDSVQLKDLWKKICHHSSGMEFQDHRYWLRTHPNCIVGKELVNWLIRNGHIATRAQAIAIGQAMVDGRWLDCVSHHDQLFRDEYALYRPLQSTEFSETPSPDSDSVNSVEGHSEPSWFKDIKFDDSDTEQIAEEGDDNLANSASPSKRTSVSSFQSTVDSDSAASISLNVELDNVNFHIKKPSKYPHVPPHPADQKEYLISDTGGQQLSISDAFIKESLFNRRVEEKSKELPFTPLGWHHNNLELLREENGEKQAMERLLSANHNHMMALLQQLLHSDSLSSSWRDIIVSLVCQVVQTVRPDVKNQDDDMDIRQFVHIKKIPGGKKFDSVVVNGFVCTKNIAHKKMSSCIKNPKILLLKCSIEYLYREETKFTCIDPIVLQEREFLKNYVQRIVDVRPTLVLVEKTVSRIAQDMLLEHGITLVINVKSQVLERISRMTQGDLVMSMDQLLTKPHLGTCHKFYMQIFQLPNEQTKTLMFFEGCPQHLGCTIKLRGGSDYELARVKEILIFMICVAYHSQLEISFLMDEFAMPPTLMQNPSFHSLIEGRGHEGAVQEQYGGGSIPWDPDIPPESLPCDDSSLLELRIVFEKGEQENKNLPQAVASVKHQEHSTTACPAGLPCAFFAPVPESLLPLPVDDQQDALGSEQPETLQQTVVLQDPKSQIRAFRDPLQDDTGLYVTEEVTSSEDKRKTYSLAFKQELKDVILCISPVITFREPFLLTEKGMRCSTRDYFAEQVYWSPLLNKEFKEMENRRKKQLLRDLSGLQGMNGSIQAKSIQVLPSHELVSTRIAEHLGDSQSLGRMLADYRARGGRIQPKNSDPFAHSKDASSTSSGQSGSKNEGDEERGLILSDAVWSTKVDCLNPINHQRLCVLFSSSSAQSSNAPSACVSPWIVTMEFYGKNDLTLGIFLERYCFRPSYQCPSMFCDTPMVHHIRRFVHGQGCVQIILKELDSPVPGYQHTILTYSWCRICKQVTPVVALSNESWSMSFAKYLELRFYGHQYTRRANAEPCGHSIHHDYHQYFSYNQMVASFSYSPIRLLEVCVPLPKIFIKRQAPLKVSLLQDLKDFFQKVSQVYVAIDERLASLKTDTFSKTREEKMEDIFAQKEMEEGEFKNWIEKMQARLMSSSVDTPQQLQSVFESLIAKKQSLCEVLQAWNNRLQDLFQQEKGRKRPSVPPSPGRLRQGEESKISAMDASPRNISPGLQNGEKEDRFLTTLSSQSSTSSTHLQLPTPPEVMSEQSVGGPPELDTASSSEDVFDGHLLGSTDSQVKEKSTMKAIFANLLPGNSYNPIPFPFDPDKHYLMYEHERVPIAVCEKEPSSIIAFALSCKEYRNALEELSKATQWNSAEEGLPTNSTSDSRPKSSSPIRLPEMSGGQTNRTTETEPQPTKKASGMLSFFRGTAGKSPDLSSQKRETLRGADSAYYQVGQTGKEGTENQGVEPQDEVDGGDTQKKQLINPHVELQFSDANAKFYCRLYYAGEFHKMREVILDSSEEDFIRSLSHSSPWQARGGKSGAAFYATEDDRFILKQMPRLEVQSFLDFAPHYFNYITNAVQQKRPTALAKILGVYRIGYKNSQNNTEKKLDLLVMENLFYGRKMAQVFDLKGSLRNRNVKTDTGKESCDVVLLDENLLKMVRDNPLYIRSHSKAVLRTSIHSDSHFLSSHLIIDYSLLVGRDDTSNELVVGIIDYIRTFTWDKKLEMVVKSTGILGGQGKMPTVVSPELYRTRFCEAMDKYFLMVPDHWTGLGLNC

This assay concerns the target Full length human recombinant PIKFYVE (Homo sapiens (Human), UniProt Q9Y2I7). Briefly: Inhibition of PIKfyve (microfluidic electrophoresis kinase assay). To be noted: 2 nM enzyme, PI3P/PS substrate, 3 h at room temperature, 12 concentrations. Type of assay: biochemical. The procedure: Full length human recombinant PIKFYVE expressed in baculovirus expression system as N-terminal GST-fusion protein (265 kDa) was obtained from Carna Biosciences (Kobe, Japan). The kinase substrate was prepared by mixing and sonicating fluorescently-labeled phosphatidylinositol 3-phosphate (PI3P) with phospho-L-serine (PS) at a 1:10 ratio in 50 mM HEPES buffer pH7.5.
The kinase reactions were assembled in 384-well plates (Greiner) in a total volume of […] as follows. Kinase protein was pre-diluted in an assay buffer comprising 25 mM HEPES, pH 7.5, 1 mM DTT, 2.5 mM MgCl2, and 2.5 mM MnCl2, and 0.005% Triton X-100, and dispensed into a 384-well plate (10 μL per well). Test compounds were serially pre-diluted in DMSO and added to the protein samples by acoustic dispensing (Labcyte Echo). The concentration of DMSO was equalized to 1% in all samples. All test compounds were tested at 12 concentrations. Apilimod was used as a reference compound and was tested in identical manner in each assay plate. Control samples (0%-inhibition, in the absence of inhibitor, DMSO only) and 100%-inhibition (in the absence of enzyme) were assembled in replicates of four and were used to calculate %-inhibition in the presence of compounds. The reactions were initiated by addition of 10 μL of 2× PI3P/PS substrate supplemented with ATP. The final concentration of enzyme was 2 nM, the final concentration of ATP was 10 mM, and the final concentration of PI3P/PS substrate was 1 μM (PI3P). The kinase reactions were allowed to proceed for 3 h at room temperature. Following incubation, the reactions were quenched by addition of […] of termination buffer (100 mM HEPES, pH 7.5, 0.01% Triton X-100, 20 mM EDTA). Terminated plates were analyzed on a microfluidic electrophoresis instrument (Caliper LabChip® 3000, Caliper Life Sciences/Perkin Elmer). The change in the relative fluorescence intensity of the PI (3) P substrate and PI (3,5) P product peaks was measured. The activity in each test sample was determined as the product to sum ratio (PSR): P/(S+P), where P is the peak height of the product, and S is the peak height of the substrate. Percent inhibition (Pinh) was determined using the following equation: Pinh=(PSR0% inh−PSRcompound)/(PSR0% inh−PSR100% inh)*100 in which PSRcompound is the product/sum ratio in the presence of compound, PSR0% inh is the product/sum ratio in the absence of compound, and the PSR100% inh is the product/sum ratio in the absence of the enzyme.
With `Cc1cccc(-c2ccn(-c3cc(N4CCOCC4)n4nc(C(=O)N[C@@H]5CCCN(C)C5)cc4n3)n2)c1` [Compound 52, N-[(3R)-1-methyl-3-piperidyl]-7-morpholino-5-[3-(m-tolyl)pyrazol-1-yl]pyrazolo[1,5-a]pyrimidine-2-carboxamide], the IC50 stood at 28.4 nM.
With `c1ccc(-c2ccn(-c3cc(N4CCOCC4)n4nc(-c5cncnc5)cc4n3)n2)cc1` [Compound 69, 4-[5-(3-phenylpyrazol-1-yl)-2-pyrimidin-5-yl-pyrazolo[1,5-a]pyrimidin-7-yl]morpholine] the figure was 752 nM; with `Brc1cccc(-c2ccn(-c3cc(N4CCOCC4)n4nc(-c5cccnc5)cc4n3)n2)c1` [Compound 106, 4-[5-[3-(3-bromophenyl)pyrazol-1-yl]-2-(3-pyridyl)pyrazolo[1,5-a]pyrimidin-7-yl]morpholine], 19.9 nM; with `Cc1cccc(-c2ccn(-c3cc(N4CCOCC4)n4nc(C(=O)N(C)C5CC5)cc4n3)n2)c1` [Example 26, N-cyclopropyl-N-methyl-7-morpholino-5-(3-(m-tolyl)-1H-pyrazol-1-yl)pyrazolo[1,5-a]pyrimidine-2-carboxamide], 162 nM.
As to `Cc1cccc(-c2ccn(-c3cc(N4CCOCC4)n4nc(-c5cc[nH]n5)cc4n3)n2)c1` [Compound 62, 4-[5-[3-(m-tolyl)pyrazol-1-yl]-2-(1H-pyrazol-3-yl)pyrazolo[1,5-a]pyrimidin-7-yl]morpholine], the IC50 was determined as 15.8 nM.
On to `Cc1cnn(-c2cc(N3CCOCC3)n3nc(-c4ccncc4)cc3n2)c1` [Example 12, 4-[5-(4-methylpyrazol-1-yl)-2-(4-pyridyl)pyrazolo[1,5-a]pyrimidin-7-yl]morpholine], for which the IC50 was greater than 10000 nM.
The value for `Cc1cccc(-c2ccn(-c3cc(N4CCOCC4)n4nc(C(=O)N5CCN(C)CC5)cc4n3)n2)c1` [Example 32, (4-methylpiperazin-1-yl) (7-morpholino-5-(3-(m-tolyl)-1H-pyrazol-1-yl)pyrazolo[1,5-a]pyrimidin-2-yl)methanone] was 254 nM; that for `Cc1cccc(-c2ccn(-c3cc(N4CCOCC4)n4nc(C(=O)NC5CCN(C)CC5)cc4n3)n2)c1` [Compound 54, N-(1-methyl-4-piperidyl)-7-morpholino-5-[3-(m-tolyl)pyrazol-1-yl]pyrazolo[1,5-a]pyrimidine-2-carboxamide] was 126 nM.
With `COCC(COC)NC(=O)c1cc2nc(-n3ccc(-c4cccc(C)c4)n3)cc(N3CCOCC3)n2n1` [Example 39, N-(1,3-dimethoxypropan-2-yl)-7-morpholino-5-(3-(m-tolyl)-1H-pyrazol-1-yl)pyrazolo[1,5-a]pyrimidine-2-carboxamide] the figure was 99.6 nM; with `Cc1cccc(-c2ccn(-c3cc(N4CCOCC4)n4nc(C(=O)N5CCC5)cc4n3)n2)c1` [Example 28, azetidin-1-yl(7-morpholino-5-(3-(m-tolyl)-1H-pyrazol-1-yl)pyrazolo[1,5-a]pyrimidin-2-yl)methanone], 137 nM.
With `Cc1cccc(-c2cnn(-c3cc(N4CCOCC4)n4nc(-c5ccncc5)cc4n3)c2)c1` [Example 10, 4-[5-[4-(m-tolyl)pyrazol-1-yl]-2-(4-pyridyl)pyrazolo[1,5-a]pyrimidin-7-yl]morpholine] the figure was greater than 10000 nM.
For the molecule `Cc1cccc(-c2ccn(-c3cc(N4CCOCC4)n4nc(C(=O)N[C@H]5CCCN(C)C5)cc4n3)n2)c1` [Compound 53, N-[(3S)-1-methyl-3-piperidyl]-7-morpholino-5-[3-(m-tolyl)pyrazol-1-yl]pyrazolo[1,5-a]pyrimidine-2-carboxamide], the half-maximal inhibitory concentration (IC50) was 26.8 nM.
For the molecule `Cc1cccc(-c2ccn(-c3cc(N4CCOCC4)n4nc(C(=O)N[C@@H]5CCN(C)C5)cc4n3)n2)c1` [Compound 49, N-[(3R)-1-methylpyrrolidin-3-yl]-7-morpholino-5-[3-(m-tolyl)pyrazol-1-yl]pyrazolo[1,5-a]pyrimidine-2-carboxamide], the concentration for half-maximal inhibition (IC50) turned out to be 112 nM.
The value for `Clc1cccc(-c2ccn(-c3cc(N4CCOCC4)n4nc(-c5cccnc5)cc4n3)n2)c1` [Compound 105, 4-[5-[3-(3-chlorophenyl)pyrazol-1-yl]-2-(3-pyridyl)pyrazolo[1,5-a]pyrimidin-7-yl]morpholine] was greater than 10000 nM; that for `Cc1cc(-c2cc3nc(-n4ccc(-c5cccc(Cl)c5)n4)cc(N4CCOCC4)n3n2)nn1CCN(C)C` [Compound 97, 2-[3-[5-[3-(3-chlorophenyl)pyrazol-1-yl]-7-morpholino-pyrazolo[1,5-a]pyrimidin-2-yl]-5-methyl-pyrazol-1-yl]-N,N-dimethyl-ethanamine] was 126 nM; that for `COc1cccc(-c2ccn(-c3cc(N4CCOCC4)n4nc(-c5cc(C)n(CCN(C)C)n5)cc4n3)n2)c1` [Compound 100, 2-[3-[5-[3-(3-methoxyphenyl)pyrazol-1-yl]-7-morpholino-pyrazolo[1,5-a]pyrimidin-2-yl]-5-methyl-pyrazol-1-yl]-N,N-dimethyl-ethanamine] was 8.4 nM.
For the molecule `O=C(NCC1COC1)c1cc2nc(-n3ccc(-c4ccccc4)n3)cc(N3CCOCC3)n2n1` [Compound 76, 7-morpholino-N-(oxetan-3-ylmethyl)-5-(3-phenylpyrazol-1-yl)pyrazolo[1,5-a]pyrimidine-2-carboxamide], the IC50 was found to be 1590 nM.
The value for `Cc1ccccc1-c1cc(N)n(-c2cc(N3CCOCC3)n3nc(-c4ccncc4)cc3n2)n1` [Example 8, 1-(7-morpholino-2-(pyridin-4-yl)pyrazolo[1,5-a]pyrimidin-5-yl)-3-(o-tolyl)-1H-pyrazol-5-amine] was 6690 nM; that for `CCNC(=O)c1cc2nc(-n3ccc(-c4cccc(C)c4)n3)cc(N3CCOCC3)n2n1` [Example 19, N-ethyl-7-morpholino-5-(3-(m-tolyl)-1H-pyrazol-1-yl)pyrazolo[1,5-a]pyrimidine-2-carboxamide] was 76.2 nM.
Consider `Cc1cccc(-c2cnn(-c3cc(N4CCOCC4)n4nc(-c5cncnc5)cc4n3)c2)c1` [Compound 58, 4-[5-[4-(m-tolyl)pyrazol-1-yl]-2-pyrimidin-5-yl-pyrazolo[1,5-a]pyrimidin-7-yl]morpholine], for which the 50% inhibitory concentration (IC50) is greater than 20000 nM.
Consider `c1ccc(-c2cnn(-c3cc(N4CCOCC4)n4nc(-c5cccnc5)cc4n3)c2)cc1` [Compound 79, 4-[5-(4-phenylpyrazol-1-yl)-2-(3-pyridyl)pyrazolo[1,5-a]pyrimidin-7-yl]morpholine], for which the IC50 was determined as 333 nM.
With `c1ccc(-c2ccn(-c3cc(N4CCOCC4)n4nc(-c5ccccn5)cc4n3)n2)cc1` [Compound 72, 4-[5-(3-phenylpyrazol-1-yl)-2-(2-pyridyl)pyrazolo[1,5-a]pyrimidin-7-yl]morpholine], the IC50 turned out to be 281 nM.
With `Cc1cccc(-c2ccn(-c3cc(N4CCOCC4)n4nc(-c5cn[nH]c5)cc4n3)n2)c1` [Compound 113, 4-[5-[3-(m-tolyl)pyrazol-1-yl]-2-(1H-pyrazol-4-yl)pyrazolo[1,5-a]pyrimidin-7-yl]morpholine] the figure was 2.5 nM.
Consider `c1ccc(-c2ccn(-c3cc(N4CCOCC4)n4nc(-c5cnccn5)cc4n3)n2)cc1` [Compound 82, 4-[5-(3-phenylpyrazol-1-yl)-2-pyrazin-2-yl-pyrazolo[1,5-a]pyrimidin-7-yl]morpholine], for which the IC50 stood at 169 nM.
The value for `c1ccc(-c2ccn(-c3cc(N4CCOCC4)n4nc(-c5ccncn5)cc4n3)n2)cc1` [Compound 68, 4-[5-(3-phenylpyrazol-1-yl)-2-pyrimidin-4-yl-pyrazolo[1,5-a]pyrimidin-7-yl]morpholine] was 1660 nM.
